These results are taken from patent publication US9260439B2, “Dihydropyrrolopyrimidine derivatives” (PFIZER INC., priority 2014, dated 2016).

Test [1] concerns the target truncated PI3Kα (p110α/iSH2 p85α) (Homo sapiens (Human), UniProt P42336). Nature of the test: PI3KA_Act fluorescence polarization kinase assay (Ki). Type of test: biochemical. As to conditions: 1 mM ATP. Put shortly:
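p110α/iSH2 p85α (0.5 nM) was reacted with 30 μM sonicated PIP2 in 50 mM HEPES pH 7.4, 150 mM NaCl, 5 mM MgCl2, 1 mM DTT and 0.05% CHAPS for 30 min at room temperature, then stopped with EDTA. PIP3 was detected by fluorescence polarization (GST-Grp1 PH domain/TAMRA-PIP3), and Ki came from a Morrison tight-binding fit.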
In general terms: Polarisation of emitted light reports the rotation of a fluorescent probe.

The target in test [2] is full-length PI3Kα (full-length p110α/p85α) (Homo sapiens (Human), UniProt P42336). The test is described as follows: PI3KA_FL fluorescence polarization kinase assay (Ki). Format: biochemical. The note with it: 41 μM ATP. The source says:
Enzyme Production for Biochemical Assays: 1) PI3Kα Complex (Full Length p110α and p85α)(“PI3KA_FL”)
Genes encoding for full length p110α and p85α subunits of PI3Kα complex were subcloned from existing constructs into pFASTBAC Dual vector (Life Technologies, Carlsbad, Calif.) using standard cloning procedures. Gene encoding p110α subunit was subcloned into polyhedrine promoter while gene encoding p85α subunit was subcloned into p10 promoter. Additionally, sequence encoding for histidine tag and Tobacco Etch Virus (“TEV”) cleavage site preceded p110α ORF (Open Reading Frame). Recombinant baculovirus was generated using Bac-to-Bac protocol (Life Technologies, Carlsbad, Calif.) and large scale expression was conducted in Sf21 (Life Technologies, Carlsbad, Calif.) cells at a multiplicity of infection (“MOI”)=1 for 72 hours. Cells were lyzed in 50 mM Tris pH 8.0, 250 mM NaCl, 5% glycerol, 0.25 mM TCEP, and 20 mM imidazole. The PI3Kα complex was purified from clarified supernatant using Immobilized Metalo Affinity Chromatography (“IMAC”). The protein was eluted from the column using 50 mM Tris pH 8.0, 200 mM NaCl, 5% glycerol, 0.25 mM TCEP, and 200 mM imidazole, and further desalted into 50 mM Tris pH 8.0, 20 mM NaCl, and 0.25 mM TCEP prior to loading on MonoQ sepharose (GE Healthcare, Piscataway, N.J.). PI3Kα complex was eluted from MonoQ sepharose over 20 column volumes using 0-30% gradient of buffer B (50 mM Tris pH 8.0, 1 M NaCl, and 0.25 mM TCEP). The peak fractions were pulled together and loaded on Superdex 200 26/60 SEC column equilibrated in 50 mM Tris pH 8.0, 200 mM NaCl, and 0.5 mM TCEP. […] Purity and integrity of the complex was confirmed using LCMS, analytical SEC and SDS-PAGE (sodium dodecyl sulfate polyacrylamide gel electrophoresis) analysis.
The biochemical assays of kinase activity of full-length PI3Kα (full-length p110α/p85a) or truncated PI3Kα (p110α/iSH2 p85a) were conducted using a fluorescence polarization format similar to the procedure of Yuan J., et al., (2011) “PF-04691502, a Potent and Selective Oral Inhibitor of PI3K and mTOR Kinases with Antitumor Activity”, Mol Cancer Ther. 10, 2189-2199. The enzymatic reactions were conducted in 50 μL volumes in 96-well plates. The reactions contained human recombinant PI3Kα (2 nM full-length p110α/p85α or 0.5 nM p110α/iSH2 p85) and 30 μM phosphatidylinositol 4,5-bisphosphate (“PIP2”) (Cayman Chemical Company, Ann Arbor, Mich.) and were sonicated for 1 minute prior to adding PI3Kα enzyme (PI3KA_Act or PI3KA_FL), DMSO or test compound (12-point 3-fold serial dilution, 3 μM top dose, 2° A) DMSO final concentration), 5 mM MgCl2, 50 mM HEPES pH 7.4, 150 mM NaCl, 1 mM DTT ((2S,3S)-1,4-bis(sulfanyl)butane-2,3-diol), and 0.05% 3-[(3-cholamidopropyl)dimethylammonio]-1-propanesulfonate (“CHAPS”). […] The reactions were incubated for 30 min at room temperature, stopped with EDTA pH 8 (10 mM final concentration). In a detection plate, 15 μL of detector/probe mixture, containing 480 nM GST-Grp1 PH domain protein (University of Dundee, Dundee, UK) and 12 nM carboxytetramethylrhodamine (“TAMRA”)-tagged fluorescent phosphatidylinositol (3,4,5)-triphosphate (“PIP3”) (Echelon Biosciences, Inc., Salt Lake City, Utah) in assay buffer, was mixed with 15 μL of kinase reaction mixture. The plate was shaken for 30 minutes and fluorescence polarization values were measured on an LJL Analyst HT plate reader (Molecular Devices, Sunnyvale, Calif.). […] The inhibition constants (Ki) were calculated by fitting fluorescence polarization values, corresponding to initial reaction rates, to the Morrison equation (Morrison, J. F. (1969) Kinetics of the reversible inhibition of enzyme catalysed reactions by tight-binding inhibitors. Biochim. Biophys. Acta 185, 269-286) for tight-binding competitive inhibitors using non-linear regression method (GraphPad Prism, GraphPad Software, San Diego, Calif.).

Sequence of full-length PI3Kα (full-length p110α/p85α) (P42336 whole entry): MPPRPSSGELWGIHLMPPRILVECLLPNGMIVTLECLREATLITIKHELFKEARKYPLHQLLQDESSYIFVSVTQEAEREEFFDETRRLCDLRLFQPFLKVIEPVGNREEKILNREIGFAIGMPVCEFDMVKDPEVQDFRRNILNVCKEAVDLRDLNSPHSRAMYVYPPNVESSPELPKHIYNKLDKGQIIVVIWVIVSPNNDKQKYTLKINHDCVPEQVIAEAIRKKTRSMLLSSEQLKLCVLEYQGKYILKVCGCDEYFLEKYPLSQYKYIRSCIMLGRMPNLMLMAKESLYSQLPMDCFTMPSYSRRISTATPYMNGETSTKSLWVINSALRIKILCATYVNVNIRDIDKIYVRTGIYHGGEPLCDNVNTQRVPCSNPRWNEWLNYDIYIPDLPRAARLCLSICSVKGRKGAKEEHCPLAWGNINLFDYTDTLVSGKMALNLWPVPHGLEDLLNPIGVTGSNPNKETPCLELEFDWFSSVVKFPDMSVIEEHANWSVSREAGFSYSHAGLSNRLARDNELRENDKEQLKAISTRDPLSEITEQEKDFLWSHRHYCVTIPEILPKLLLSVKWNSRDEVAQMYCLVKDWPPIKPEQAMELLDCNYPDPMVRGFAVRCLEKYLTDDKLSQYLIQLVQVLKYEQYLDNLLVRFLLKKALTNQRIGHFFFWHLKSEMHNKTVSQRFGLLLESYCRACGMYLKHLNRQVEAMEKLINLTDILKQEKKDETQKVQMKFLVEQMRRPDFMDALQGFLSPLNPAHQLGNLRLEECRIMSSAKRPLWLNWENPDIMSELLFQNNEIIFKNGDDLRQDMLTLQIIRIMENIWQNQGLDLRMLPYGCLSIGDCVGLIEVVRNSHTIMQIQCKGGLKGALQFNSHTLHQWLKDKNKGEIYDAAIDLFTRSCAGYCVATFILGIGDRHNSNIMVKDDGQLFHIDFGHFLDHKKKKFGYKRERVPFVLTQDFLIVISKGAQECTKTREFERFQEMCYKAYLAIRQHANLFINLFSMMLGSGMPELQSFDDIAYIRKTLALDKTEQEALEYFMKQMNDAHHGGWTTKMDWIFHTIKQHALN
Sequence of full-length PI3Kα (full-length p110α/p85α) (P27986 whole entry partner): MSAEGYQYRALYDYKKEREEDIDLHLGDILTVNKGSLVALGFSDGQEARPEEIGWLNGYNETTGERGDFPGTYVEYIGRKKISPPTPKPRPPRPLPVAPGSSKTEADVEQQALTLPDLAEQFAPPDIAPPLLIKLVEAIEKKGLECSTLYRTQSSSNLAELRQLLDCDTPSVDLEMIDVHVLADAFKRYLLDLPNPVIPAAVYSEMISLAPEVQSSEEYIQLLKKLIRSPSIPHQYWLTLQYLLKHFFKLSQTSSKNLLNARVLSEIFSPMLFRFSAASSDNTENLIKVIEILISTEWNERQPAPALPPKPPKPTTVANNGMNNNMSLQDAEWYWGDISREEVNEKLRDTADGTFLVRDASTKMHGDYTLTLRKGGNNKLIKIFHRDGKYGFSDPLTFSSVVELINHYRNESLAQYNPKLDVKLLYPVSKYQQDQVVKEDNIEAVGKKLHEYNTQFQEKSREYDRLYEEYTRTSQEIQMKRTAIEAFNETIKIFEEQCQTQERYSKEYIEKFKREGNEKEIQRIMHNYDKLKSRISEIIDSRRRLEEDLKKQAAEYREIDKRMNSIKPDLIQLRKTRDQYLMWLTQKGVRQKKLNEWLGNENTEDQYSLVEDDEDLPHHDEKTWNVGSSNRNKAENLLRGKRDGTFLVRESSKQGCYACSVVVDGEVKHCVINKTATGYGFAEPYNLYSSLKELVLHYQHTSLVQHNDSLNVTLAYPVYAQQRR
Sequence of truncated PI3Kα (p110α/iSH2 p85α) (P42336 whole entry, the tested form may be a part): as the sequence (P42336 whole entry) above

On to `CC1(N2CCc3c(-c4cnc(N)nc4)nc(N4CCOCC4)nc32)CCN(S(C)(=O)=O)C1` (racemic) [Example 146], for which the “PI3KA_Act Ki” value in test [1] is listed as 0.015 nM. Besides, in test [2], the “PI3KA_FL Ki (nM)” value is on record as “≦0.229 nM”. Consider `Nc1ncc(-c2nc(N3CCOCC3)nc3c2CCN3[C@H]2CCC(F)(F)C2)cn1` (single isomer, unassigned) [Example 34], for which the “PI3KA_Act Ki” value in test [1] is given as 0.730 nM. Further, in test [2], the “PI3KA_FL Ki” value is 0.469 nM.

With `Nc1ncc(-c2nc(N3CCOCC3)nc3c2CCN3[C@@H]2CCC(F)(F)C2)cn1` (single isomer, unassigned) [Example 35], the “PI3KA_Act Ki” value in test [1] turned out to be 0.311 nM. In addition, in test [2], the “PI3KA_FL Ki” value is reported as 0.393 nM. Taken in the same sequence, the figures for `CC(=O)N1C[C@@H](F)[C@@H](N2CCc3c(-c4cnc(N)nc4)nc(N4CCOCC4)nc32)C1` (single isomer, unassigned) [Example 74] were 2.441 nM and 5.079 nM. Take `CC(C)S(=O)(=O)N1CC(N2CCc3c(-c4cnc(N)nc4)nc(N4CCOC[C@@H]4C)nc32)C1` [Example 1, 5-{2-[(3S)-3-methylmorpholin-4-yl]-7-[1-(propan-2-ylsulfonyl)azetidin-3-yl]-6,7-dihydro-5H-pyrrolo[2,3-d]pyrimidin-4-yl}pyrimidin-2-amine]: in test [1], the “PI3KA_Act Ki” value is 0.102 nM. For the same compound, the “PI3KA_FL Ki (nM)” value in test [2] is “≦0.229 nM”. Turning to `Nc1ncc(-c2nc(N3CCOCC3)nc3c2CCN3C2CC(F)(F)C2)cn1` [Example 13], the “PI3KA_Act Ki” value in test [1] is 0.211 nM. In addition, the “PI3KA_FL Ki” value in test [2] is given as 0.307 nM. In the case of `CS(=O)(=O)N1CC[C@H](N2CCc3c(-c4cnc(N)nc4)nc(N4CCOCC4)nc32)C1` [Example 20], in test [1], the “PI3KA_Act Ki” value stood at 0.153 nM. For the same compound, in test [2], the “PI3KA_FL Ki (nM)” value is recorded as “≦0.229 nM”. For `CNS(=O)(=O)N1CC[C@H](N2CCc3c(-c4cnc(N)nc4)nc(N4CCOCC4)nc32)C1` [Example 38], in test [1], the “PI3KA_Act Ki” value turned out to be 0.124 nM. Moreover, the “PI3KA_FL Ki” value in test [2] came to 0.228 nM. Taken in the same sequence, the figures for `CNS(=O)(=O)N(C)[C@H]1C[C@H](N2CCc3c(-c4cnc(N)nc4)nc(N4CCOCC4)nc32)C1` [Example 46] were 0.187 nM and 0.412 nM. Taken in the same sequence, the figures for `CNS(=O)(=O)N(C)[C@H]1C[C@@H](N2CCc3c(-c4cnc(N)nc4)nc(N4CCOCC4)nc32)C1` [Example 57] were 0.465 nM and 0.318 nM.

As for `N#C[C@H]1C[C@H](N2CCc3c(-c4cnc(N)nc4)nc(N4CCOCC4)nc32)C1` [Example 59], the “PI3KA_Act Ki” value in test [1] is given as 0.122 nM. Moreover, the “PI3KA_FL Ki (nM)” value in test [2] was “≦0.229 nM”. With `COC(=O)N1CC(N2CCc3c(-c4cnc(N)nc4)nc(N4CCOCC4)nc32)C1` [Example 61], in test [1], the “PI3KA_Act Ki” value stood at 0.235 nM. In addition, in test [2], the “PI3KA_FL Ki” value was 0.234 nM. `Nc1ncc(-c2nc(N3CCOCC3)nc3c2CCN3C2CN(S(N)(=O)=O)C2)cn1` [Example 72]: in test [1], the “PI3KA_Act Ki” value is 0.129 nM. In test [2], the “PI3KA_FL Ki (nM)” value was “≦0.229 nM”. In the case of `CS(=O)(=O)N1CC(N2CCc3c(-c4cnc(N)nc4)nc(N4CCOCC4)nc32)C1` [Example 73], the “PI3KA_Act Ki” value in test [1] is 0.303 nM. Also, in test [2], the “PI3KA_FL Ki” value came to 0.350 nM. Consider `CNS(=O)(=O)N1CCC[C@H](N2CCc3c(-c4cnc(N)nc4)nc(N4CCOCC4)nc32)C1` [Example 91], for which the “PI3KA_FL Ki” value in test [2] came out at 1.472 nM.

Consider `CC(C)[C@@H](O)C(=O)N(C)[C@H]1C[C@H](N2CCc3c(-c4cnc(N)nc4)nc(N4CCOC[C@@H]4C)nc32)C1` [Example 94], for which the “PI3KA_FL Ki” value in test [2] is recorded as 2.371 nM. `CC(=O)N1CC[C@H](N2CCc3c(-c4cnc(N)nc4)nc(N4CCOC[C@@H]4C)nc32)C1` [Example 96]: the “PI3KA_FL Ki” value in test [2] was determined as 2.093 nM.

As to `CNS(=O)(=O)N1CCC[C@@H](N2CCc3c(-c4cnc(N)nc4)nc(N4CCOCC4)nc32)C1` [Example 97], the “PI3KA_FL Ki” value in test [2] was 3.632 nM. Turning to `CO[C@@H]1CN(C(C)=O)C[C@H]1N1CCc2c(-c3cnc(N)nc3)nc(N3CCOC[C@@H]3C)nc21` [Example 98], the “PI3KA_FL Ki” value in test [2] is 1.244 nM.

Take `CS(=O)(=O)N1CCC[C@H](N2CCc3c(-c4cnc(N)nc4)nc(N4CCOCC4)nc32)C1` [Example 99]: the “PI3KA_FL Ki” value in test [2] is on record as 2.122 nM. On the same count and under the same terms, under `CO[C@@H]1CN(S(C)(=O)=O)C[C@H]1N1CCc2c(-c3cnc(N)nc3)nc(N3CCOC[C@@H]3C)nc21` [Example 103] stands 0.557 nM.

Regarding `CS(=O)(=O)N[C@H]1C[C@@H](N2CCc3c(-c4cnc(N)nc4)nc(N4CCOCC4)nc32)C1` [Example 107], the “PI3KA_FL Ki” value in test [2] stood at 1.388 nM. Still for that read-out and setting: as for `CN(C)S(=O)(=O)N1CC(N2CCc3c(-c4cnc(N)nc4)nc(N4CCOCC4)nc32)C1` [Example 110], the figure is 0.735 nM. Regarding `CCS(=O)(=O)N1CC[C@@H](N2CCc3c(-c4cnc(N)nc4)nc(N4CCOCC4)nc32)C1` [Example 112], in test [2], the “PI3KA_FL Ki” value stood at 0.491 nM. On the same count and under the same terms, as for `CS(=O)(=O)[C@H]1CC[C@@H](N2CCc3c(-c4cnc(N)nc4)nc(N4CCOCC4)nc32)C1` [Example 114], the figure is 1.268 nM. Still for that read-out and setting: as for `CC(C)S(=O)(=O)N1CC(N2CCc3c(-c4cnc(N)nc4)nc(N4CCOCC4)nc32)C1` [Example 116], the figure is 0.961 nM. Same read-out and setting: as for `CC(C)OC(=O)N1CC[C@H](N2CCc3c(-c4cnc(N)nc4)nc(N4CCOC[C@@H]4C)nc32)C1` [Example 124], the figure is 0.333 nM; as for `C[C@H]1COCCN1c1nc(-c2cnc(N)nc2)c2c(n1)N([C@@H]1CN(S(N)(=O)=O)C[C@H]1O)CC2` [Example 127], 0.789 nM. For `CN(C)S(=O)(=O)[C@H]1CC[C@@H](N2CCc3c(-c4cnc(N)nc4)nc(N4CCOCC4)nc32)C1` [Example 129], in test [2], the “PI3KA_FL Ki” value is reported as 0.380 nM. Still for that read-out and setting: under `CNS(=O)(=O)[C@H]1CC[C@@H](N2CCc3c(-c4cnc(N)nc4)nc(N4CCOCC4)nc32)C1` [Example 130] stands 0.352 nM; under `COCCOC(=O)N1CC[C@H](N2CCc3c(-c4cnc(N)nc4)nc(N4CCOC[C@@H]4C)nc32)C1` [Example 133], 0.468 nM. Same read-out and setting: as for `CC(C)N1CCc2c(-c3cnc(N)nc3)nc(N3CCOCC3)nc21` [Example 134], the figure is 3.883 nM.

On to `CC(C)(C)NC(=O)N1CC[C@@H](N2CCc3c(-c4cnc(N)nc4)nc(N4CCOCC4)nc32)C1` [Example 135], for which, in test [2], the “PI3KA_FL Ki” value is on record as 5.159 nM. On to `Nc1ncc(-c2nc(N3CCOCC3)nc3c2CCN3[C@@H]2CC[C@H](S(N)(=O)=O)C2)cn1` [Example 137], for which the “PI3KA_FL Ki” value in test [2] is reported as 0.664 nM. Same read-out and setting: as for `C[C@H]1COCCN1c1nc(-c2cnc(N)nc2)c2c(n1)N([C@@H]1CCN(C(=O)NC(C)(C)C)C1)CC2` [Example 138], the figure is 5.547 nM; as for `CC(C)(C)NC(=O)N1CC[C@H](N2CCc3c(-c4cnc(N)nc4)nc(N4CCOCC4)nc32)C1` [Example 139], 0.596 nM.
